Data as given in ChEMBL document CHEMBL3880431, “Heme oxygenase inhibitors, screening methods for heme oxygenase inhibitors and methods of use of heme oxygenase inhibitors for antimicrobial therapy” (2013).
Activity calls are given as the source filed them. The rule behind the calls is not given here.

Experiments:
[1] = Lipophilicity, log P of the compound; format: physicochemical; conditions: octanol/water; read-out: logP
[2] = molecular target: T1, Biliverdin-producing heme oxygenase (Neisseria meningitidis, UniProt Q9AH50); assay: Binding affinity to Neisseria meningitidis wild type apo heme oxygenase expressed in Escherichia coli BL21(DE3) pLysS by spectrofluorimetric analysis
T1 sequence (Q9AH50 whole entry): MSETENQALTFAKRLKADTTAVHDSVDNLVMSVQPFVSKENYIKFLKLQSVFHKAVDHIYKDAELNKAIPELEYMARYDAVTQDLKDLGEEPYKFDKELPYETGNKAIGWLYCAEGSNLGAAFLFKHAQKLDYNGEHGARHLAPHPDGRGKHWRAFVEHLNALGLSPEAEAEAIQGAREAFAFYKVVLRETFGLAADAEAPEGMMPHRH

Heme oxygenase = molecular target: T2, Heme oxygenase (Pseudomonas aeruginosa, UniProt O69002); assay: Binding affinity to Pseudomonas aeruginosa MPAO1 wild type apo heme oxygenase by spectrofluorimetric analysis
T2 sequence (O69002 whole entry): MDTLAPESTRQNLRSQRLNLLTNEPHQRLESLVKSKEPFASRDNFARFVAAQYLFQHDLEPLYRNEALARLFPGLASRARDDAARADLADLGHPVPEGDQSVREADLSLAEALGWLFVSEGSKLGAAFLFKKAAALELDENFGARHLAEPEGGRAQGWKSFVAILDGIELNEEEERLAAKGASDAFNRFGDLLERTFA

Pseudomonas aeruginosa [3] = assay: Growth inhibition of Pseudomonas aeruginosa MPAO1 at >250 uM after 10 hrs; format: functional
Pseudomonas aeruginosa [4] = assay: Growth inhibition of Pseudomonas aeruginosa MPAO1 at >=500 uM after 10 hrs in presence of 40 uM of Fe(3)-pyoverdin; format: functional
Pseudomonas aeruginosa [5] = assay: Growth inhibition of Pseudomonas aeruginosa MPAO1 at 500 uM measured up to 6 hrs in presence of 25 uM of hemoglobin; format: functional
[6] = Decrease in heme oxygenase protein expression level in Pseudomonas aeruginosa MPAO1 at 0.5 mM measured every hr for 12 hrs in presence of 40 uM of Fe(3)-pyoverdin by Western blot analysis; format: functional
[7] = Decrease in heme oxygenase protein expression level in Pseudomonas aeruginosa MPAO1 at 0.5 mM measured after 6 hrs in presence of 40 uM of Fe(3)-pyoverdin by Western blot analysis; format: functional
[8] = Decrease in heme oxygenase protein expression level in Pseudomonas aeruginosa MPAO1 at 0.5 mM measured every hr for 12 hrs in presence of 25 uM of hemoglobin by Western blot analysis; format: functional
[9] = Solubility of the compound in methanol; format: physicochemical
Pseudomonas aeruginosa [10] = assay: Growth inhibition of Pseudomonas aeruginosa MPAO1 assessed as cell growth recovery up to 1500 uM after 10 hrs in presence of 40 uM of Fe(3)-pyoverdin relative to control; format: functional; design: scale not given: the % may be the effect or the level left
Pseudomonas aeruginosa [11] = assay: Growth inhibition of Pseudomonas aeruginosa MPAO1 assessed as induction of slower cell growth at 500 uM measured up to 6 hrs; format: functional
[12] = Solubility of the compound in ethanol; format: physicochemical
Pseudomonas aeruginosa [13] = assay: Antimicrobial activity against Pseudomonas aeruginosa MPAO1 after 10 hrs; format: functional; conditions: MPAO1, 10 h
[14] = Solubility of the compound in methanol/ethanol; format: physicochemical
Pseudomonas aeruginosa [15] = assay: Antimicrobial activity against Pseudomonas aeruginosa MPAO1 infected in Caenorhabditis elegans assessed as prolongation of survival of infected worms; format: functional

SMILES	logP [1]	solubility [9]	solubility [12]	other results
C(=N\Nc1nc(-c2cccnc2)cs1)/c1cccnc1	4.24	Insoluble	–	Kd ([2]; read-out: Kd): 15.6 µM; Kd (Heme oxygenase; read-out: Kd): 20.9 µM; growth inhibition (GI) (Pseudomonas aeruginosa [3]): Active; growth inhibition (GI) (Pseudomonas aeruginosa [4]): Active; growth inhibition (GI) (Pseudomonas aeruginosa [5]): Active; Activity [6]: Active; Activity [7]: Active; Activity [8]: Active; Activity (Pseudomonas aeruginosa [10]): 40%; Activity (Pseudomonas aeruginosa [11]): Active
O=C(O)C(=O)Cc1c[nH]c2ccccc12	1.59	–	Soluble	Kd [2]: Active; Kd (Heme oxygenase): Active
O=C(O)Cn1c(=O)c2cc3c(=O)n(CC(=O)O)c(=O)c3cc2c1=O	-0.68	Insoluble	–	Kd ([2]; read-out: Kd): 20.9 µM; Kd (Heme oxygenase; read-out: Kd): 6.1 µM
O=C(O)CN1C(=O)c2ccccc2C1=O	0.58	Soluble	Soluble	–
O=C(O)CSc1ncnc2ccccc12	1.46	Insoluble	–	MIC50 (Pseudomonas aeruginosa [13]): > 1000 µg/mL
COc1ccc(C(=O)CCC(=O)O)c(C)c1	1.6	–	Soluble	Kd [2]: Active; Kd (Heme oxygenase): Active
O=C(Nc1ccc(-c2cn3ccccc3n2)cc1)c1ccccc1[N+](=O)[O-]	3.56	Soluble	–	MIC50 (Pseudomonas aeruginosa [13]): > 380 µg/mL
O=[N+]([O-])c1ccc(O)c(/C=N/c2cccc(CO)c2)c1	2.71	–	–	solubility [14]: Insoluble
Cc1ccccc1C(=O)Nc1cc(C(=O)O)cc(C(=O)O)c1	2.62	Insoluble	–	Kd ([2]; read-out: Kd): 28.8 µM; Kd (Heme oxygenase; read-out: Kd): 72.8 µM
CC(=O)Oc1ccc(-c2cccc(C(=O)O)c2)cc1	3.51	Soluble	–	MIC50 (Pseudomonas aeruginosa [13]): > 1000 µg/mL
Nc1cnccc1C(=O)O	0.32 to 3	–	–	Kd ([2]; read-out: Kd): 33.5 µM; Kd (Heme oxygenase; read-out: Kd): 44.7 µM
O=[N+]([O-])c1cccc(CN2CCNCC2)c1	1.18	Soluble	–	MIC50 (Pseudomonas aeruginosa [13]): > 1000 µg/mL
NNC(=O)c1cccc2cc[nH]c12	0.8	–	Insoluble	–
Nc1cc(-c2ccc(F)cc2)nc(N)n1	1.07	–	Soluble	Kd [2]: Active; Kd (Heme oxygenase): Active
CN(C)c1ccc(/C=N/NC(=N)N)cc1	3.77	Soluble	–	Activity (Pseudomonas aeruginosa [15]): Active
O=C(O)c1cccc(NCN2C(=O)c3ccc([N+](=O)[O-])cc3C2=O)c1	2.13	–	Insoluble	–
NC(=O)c1ccc(NC(=O)/C=C\C(=O)O)cc1Cl	0.79	Soluble	–	Kd ([2]; read-out: Kd): 239 µM; Kd (Heme oxygenase; read-out: Kd): 187 µM
CN(CC(=O)O)c1nc2ccc([N+](=O)[O-])cc2s1	1.92	Soluble	–	Kd [2]: Active; Kd (Heme oxygenase): Active
O=[N+]([O-])c1cccc(/C=N/Nc2ccc(S(=O)(=O)O)cc2)c1	4.62	Insoluble	–	MIC50 (Pseudomonas aeruginosa [13]): > 1000 µg/mL
CN(C)c1ccc(/C=N/n2nnnc2N)cc1	0.76	–	–	Kd ([2]; read-out: Kd): 14.1 µM; Kd (Heme oxygenase; read-out: Kd): 15.8 µM; growth inhibition (GI) (Pseudomonas aeruginosa [3]): Active
CCN(CC)c1ccc(/C=N/n2nnnc2N)c(O)c1	1.17	Soluble	–	Kd [2]: Active; Kd (Heme oxygenase): Active
Cc1cc(O)nc(-c2ccc(C(N)=O)cc2)n1	0.86	–	Insoluble	–
COc1cc(/C=N/Cc2ccco2)ccc1O	2.07	Soluble	–	Kd [2]: Active; Kd (Heme oxygenase): Active
Cc1ccc(S(=O)(=O)NC(=O)NCc2ccco2)cc1	1.2	–	Insoluble	–
Cc1n[nH]c(Nc2ccccc2F)c1[N+](=O)[O-]	2.63	–	Insoluble	–
NC(=O)NC(=O)C[n+]1ccc(C(N)=O)cc1	-1.11	–	Insoluble	–
O=C1C=C(Nc2ccccc2O)c2ccccc2C1=O	2.8	–	Soluble	–
O=C(CNc1ccc2ccccc2c1)N/N=C/c1ccccn1	3.16	–	Insoluble	–
